The numbers were not newly measured in US9592230B2, “Substituted imidazoles as PDE10A inhibitors” (priority 2008, dated 2017), which cites them from elsewhere.

The test system of data set [1] is hyperactivity in rats induced by PCP.
Data set [2] concerns amphetamine induced hyperactivity. As to conditions: rats.
Data set [3] deals with cataleptic effect of the D2 receptor antagonist haloperidol. As to conditions: rats.

For the compound `COc1ccc(Cc2nccc3cc(OC)c(OC)cc23)cc1OC` [Papaverine, papaverine], in data set [1], the “hyperactivity induced by PCP” value is recorded as “reduced hyperactivity”. Also, the “reduction of amphetamine induced hyperactivity” value in data set [2] was “insignificant”. The “catalepsy on its own” value in data set [3] (alone) is given as “did not cause catalepsy on its own”. For the same compound, the “effect on the cataleptic effect of haloperidol” value in data set [3] (together with haloperidol) is given as “potentiated the cataleptic effect”.
